# Patent publication US11197885B2, “Collagen enhancing agent made from low acyl gellan gum, methods of making and methods of using the same” (The University of Toledo, priority 2015, dated 2021)
# Tested on: primary mouse cortical neurons (E17, DIV4)
# Test: neurite outgrowth in primary mouse cortical neurons
# Assay type: cell-based
# Settings: 2 days; midi-GAGR, dextran, alginate 1 μM; LA-GAGR 0.1 μM; HA-GAGR 0.01 μM
# Experimental: To analyze the effect of polysaccharides on neurite outgrowth, primary mouse cortical neurons were treated with vehicle (H2O) or 1 μM of dextran, alginate, or midi-GAGR, 0.01 μM of HA-GAGR, or 0.1 μM of LA-GAGR for 2 days prior to immunocytochemistry using anti-α-tubulin antibody and secondary Alexa488nm antibody. An etched grid coverslip containing 200 numbered boxes was used to select neurons objectively for image acquisition and analysis. A total of 24 boxes were randomly selected per treatment group. All the neurons having total neurite length longer than 4 times of the diameter of neuron cell body were chosen for image analysis. The total length of the neurites of each neuron was measured using Metamorph and used to calculate average total neurite length. To examine the effect of polysaccharides on the phosphorylation (activation) of nuclear CREB, neurons were stained with anti-pCREB antibody (Abcam & Santa Cruz biotechnologies, 2nd antibody with Alexa568nm), anti-α-tubulin antibody (Sigma, 2nd antibody with Alexa488nm), and DAPI (Sigma) after two-day incubation with vehicle (H2O) or 1 μM of dextran, alginate, or midi-GAGR, 0.01 μM of HA-GAGR, or 0.1 μM of LA-GAGR. […] The images of neurons on coverslips were taken by confocal microscopy at the same gain (850), offset (−0.01), and exposure time (2 sec). The intensity of the staining of nuclear pCREB was measured using Metamorph and used to calculate average intensity. In addition, the phosphorylation of CREB in the cytosols of mouse cortical neurons treated with polysaccharides were detected by immunoblotting. Primary mouse neurons were dissected from 16 mouse embryos (E17) and plated in the wells of 6-well plates (1×10^6 cells/well), differentiated for 6 days, and treated with polysaccharides for 48 h. […] The protein bands on blots recognized by anti-pCREB (Santa Cruz Biotechnologies) and anti-CREB antibodies were detected on Amersham Hyperfilm™ ECL films (GE Healthcare Life Science) using SuperSignal® West Pico Chemiluminescent Substrate (Thermo Scientific).
substance,measurement,value
dextran,fold change in average total neurite length vs vehicle,did not enhance neuritogenesis
